Data on 24 compounds can be found in US8163771B2, “11 β-HSD1 modulators” (Exelixis, Inc., priority 2008, dated 2012).

SMILES strings stand for the structures. pIC50: −log10 of the molar value.

T1 sequence (P28845 whole entry): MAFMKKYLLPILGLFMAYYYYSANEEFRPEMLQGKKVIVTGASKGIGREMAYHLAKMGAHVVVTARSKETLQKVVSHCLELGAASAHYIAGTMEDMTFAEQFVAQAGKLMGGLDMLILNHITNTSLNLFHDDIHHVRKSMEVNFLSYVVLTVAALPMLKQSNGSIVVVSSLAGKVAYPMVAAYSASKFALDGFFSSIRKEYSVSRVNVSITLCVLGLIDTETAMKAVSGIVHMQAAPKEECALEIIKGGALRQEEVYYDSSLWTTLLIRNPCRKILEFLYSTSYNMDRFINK

This assay has as its target T1, recombinant human 11 β-HSD1 (Homo sapiens, UniProt P28845).
T1 construct: made in house; host or cells: E. coli
Kind of assay: 11 β-HSD1 SPA Assay (Scintillation Proximity Assay). Type of assay: biochemical. Put shortly:
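Scintillation proximity read-out of cortisol formed from 40 nM [3H]cortisone by purified recombinant human enzyme (30-100 nM, E. coli) with 1 mM NADPH, pH7.4, 2 hours at room temperature; beads with cortisol antibody and glycyrrhetinic acid stop the reaction, read next day. IC50 derived from inhibition normalised to background and maximal wells.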
With `CC(C)(Oc1cc(OCCN2CCCC2)c(Cl)cc1Cl)C(=O)N[C@H]1C[C@H]2CC[C@@H](C1)N2c1ccc(C(=O)NCC(F)(F)F)cn1` [Example 405, 6-(3-endo-(2-(2,4-dichloro-5-(2-(pyrrolidin-1-yl)ethoxy)phenoxy)-2-methylpropanamido)-8-azabicyclo[3.2.1]octan-8-yl)-N-(2,2,2-trifluoroethyl)nicotinamide], the pIC50 was > 6.70.

For `CN1CCN(CCOc2cc(OC(C)(C)C(=O)N[C@H]3C[C@H]4CC[C@@H](C3)N4c3ccc(C(=O)NCC(F)(F)F)cn3)c(Cl)cc2Cl)CC1` [Example 406, 6-(3-endo-(2-(2,4-dichloro-5-(2-(4-methylpiperazin-1-yl)ethoxy)phenoxy)-2-methylpropanamido)-8-azabicyclo[3.2.1]octan-8-yl)-N-(2,2,2-trifluoroethyl)nicotinamide], the pIC50 was > 6.70.

In the case of `CC(C)(Oc1cc(OCCN2CCOCC2)c(Cl)cc1Cl)C(=O)N[C@H]1C[C@H]2CC[C@@H](C1)N2c1ccc(C(=O)NCC(F)(F)F)cn1` [Example 407, 6-(3-endo-(2-(2,4-dichloro-5-(2-morpholinoethoxy)phenoxy)-2-methylpropanamido)-8-azabicyclo[3.2.1]octan-8-yl)-N-(2,2,2-trifluoroethyl)nicotinamide], the pIC50 is > 6.70.

Consider `CC(C)(Oc1ncc(Cl)cc1Cl)C(=O)N[C@H]1C[C@H]2CC[C@@H](C1)N2c1ccc(C(=O)NCC(F)F)cn1` [Example 408, 6-(3-endo-(2-(3,5-dichloropyridin-2-yloxy)-2-methylpropanamido)-8-azabicyclo[3.2.1]octan-8-yl)-N-(2,2-difluoroethyl)nicotinamide], for which the pIC50 was > 6.70.

Turning to `CC(C)(Oc1ncc(Cl)cc1F)C(=O)N[C@H]1C[C@H]2CC[C@@H](C1)N2c1ccc(C(=O)NCC(F)F)cn1` [Example 409, 6-(3-endo-(2-(5-chloro-3-fluoropyridin-2-yloxy)-2-methylpropanamido)-8-azabicyclo[3.2.1]octan-8-yl)-N-(2,2-difluoroethyl)nicotinamide], the pIC50 was > 6.70.

In the case of `C[C@H](NC(=O)c1ccc(N2C3CCC2CC(NC(=O)C(C)(C)Oc2ccc(Cl)cc2OC(F)(F)F)C3)nc1)C(F)(F)F` (stereo partly drawn) [Example 410, 6-(3-endo-(2-(4-chloro-2-(trifluoromethoxy)phenoxy)-2-methylpropanamido)-8-azabicyclo[3.2.1]octan-8-yl)-N-((S)-1,1,1-trifluoropropan-2-yl)nicotinamide], the pIC50 was > 6.70.

Turning to `C[C@@H](NC(=O)c1ccc(N2C3CCC2CC(NC(=O)C(C)(C)Oc2ccc(Cl)cc2C(F)F)C3)nc1)C(F)(F)F` (stereo partly drawn) [Example 411, 6-(3-endo-(2-(4-chloro-2-(difluoromethyl)phenoxy)-2-methylpropanamido)-8-azabicyclo[3.2.1]octan-8-yl)-N-((R)-1,1,1-trifluoropropan-2-yl)nicotinamide], the pIC50 is > 6.70.

For `C[C@@H](NC(=O)c1ccc(N2C3CCC2CC(NC(=O)C(C)(C)Oc2ccc(Cl)cc2C(F)(F)F)C3)nc1)C(F)(F)F` (stereo partly drawn) [Example 412, 6-(3-endo-(2-(4-chloro-2-(trifluoromethyl)phenoxy)-2-methylpropanamido)-8-azabicyclo[3.2.1]octan-8-yl)-N-((R)-1,1,1-trifluoropropan-2-yl)nicotinamide], the pIC50 was > 6.70.

As for `CC(C)(Oc1cc(OCC(=O)O)c(Cl)cc1Cl)C(=O)N[C@H]1C[C@H]2CC[C@@H](C1)N2c1ccc(C(=O)NCC(F)(F)F)cn1` [Example 413, 2-(2,4-dichloro-5-(2-methyl-1-oxo-1-(8-(5-(2,2,2-trifluoroethylcarbamoyl)pyridin-2-yl)-8-azabicyclo[3.2.1]octan-3-endo-ylamino)propan-2-yloxy)phenoxy)acetic acid], the pIC50 is > 6.70.

Regarding `CC(C)(Oc1cc(OC(C)(C)C(=O)N[C@H]2C[C@H]3CC[C@@H](C2)N3c2ccc(C(=O)NCC(F)(F)F)cn2)c(Cl)cc1Cl)C(=O)O` [Example 414, 2-(2,4-dichloro-5-(2-methyl-1-oxo-1-(8-(5-(2,2,2-trifluoroethylcarbamoyl)pyridin-2-yl)-8-azabicyclo[3.2.1]octan-3-endo-ylamino)propan-2-yloxy)phenoxy)-2-methylpropanoic acid], the pIC50 was > 5.70.

Take `C[C@@H](NC(=O)c1ccc(N2C3CCC2CC(NC(=O)C(C)(C)Oc2ccc(Cl)cc2OC(F)(F)F)C3)nc1)C(F)(F)F` (stereo partly drawn) [Example 415, 6-[3-endo-({2-[4-chloro-2-(trifluoromethoxy)phenoxy]-2-methylpropanoyl}amino)-8-azabicyclo[3.2.1]oct-8-yl]-N-[(2R)-1,1,1-trifluoropropan-2-yl]pyridine-3-carboxamide]: the pIC50 is > 6.70.

For `C[C@H](NC(=O)c1ccc(N2C3CCC2CC(NC(=O)C(C)(C)Oc2ccc(Cl)cc2C(F)(F)F)C3)nc1)C(F)(F)F` (stereo partly drawn) [Example 416, 6-[3-endo-({2-[4-chloro-2-(trifluoromethyl)phenoxy]-2-methylpropanoyl}amino)-8-azabicyclo[3.2.1]oct-8-yl]-N-[(2S)-1,1,1-trifluoropropan-2-yl]pyridine-3-carboxamide], the pIC50 was > 6.70.

`C[C@H](NC(=O)c1ccc(N2C3CCC2CC(NC(=O)C(C)(C)Oc2ncc(Cl)cc2Cl)C3)nc1)C(F)(F)F` (stereo partly drawn) [Example 417, 6-[3-endo-({2-[(3,5-dichloropyridin-2-yl)oxy]-2-methylpropanoyl}amino)-8-azabicyclo[3.2.1]oct-8-yl]-N-[(2S)-1,1,1-trifluoropropan-2-yl]pyridine-3-carboxamide]: the pIC50 was > 6.70.

`C[C@H](NC(=O)c1ccc(N2C3CCC2CC(NC(=O)C(C)(C)Oc2ccc(F)cc2C(F)F)C3)nc1)C(F)(F)F` (stereo partly drawn) [Example 418, 6-[3-endo-({2-[2-(difluoromethyl)-4-fluorophenoxy]-2-methylpropanoyl}amino)-8-azabicyclo[3.2.1]oct-8-yl]-N-[(2S)-1,1,1-trifluoropropan-2-yl]pyridine-3-carboxamide]: the pIC50 was > 6.70.

For `C[C@H](NC(=O)c1ccc(N2C3CCC2CC(NC(=O)C(C)(C)Oc2ncc(Cl)cc2F)C3)nc1)C(F)(F)F` (stereo partly drawn) [Example 419, 6-[3-endo-({2-[(5-chloro-3-fluoropyridin-2-yl)oxy]-2-methylpropanoyl}amino)-8-azabicyclo[3.2.1]oct-8-yl]-N-[(2S)-1,1,1-trifluoropropan-2-yl]pyridine-3-carboxamide], the negative logarithm of the IC50 (pIC50) is > 5.70.

As to `C[C@H](NC(=O)c1ccc(N2C3CCC2CC(NC(=O)C(C)(C)Oc2ccc(Cl)cc2)C3)nc1)C(F)(F)F` (stereo partly drawn) [Example 420, 6-(3-endo-{[2-(4-chlorophenoxy)-2-methylpropanoyl]amino}-8-azabicyclo[3.2.1]oct-8-yl)-N-[(2S)-1,1,1-trifluoropropan-2-yl]pyridine-3-carboxamide], the pIC50 is > 5.70.

Take `CC(C)(Oc1ccc(Cl)cc1Cl)C(=O)NC1CC2CCC(C1)N2c1ccc(C(=O)NCC(O)C(F)(F)F)cn1` (stereo not drawn) [Example 421, 6-(3-endo-{[2-(2,4-dichlorophenoxy)-2-methylpropanoyl]amino}-8-azabicyclo[3.2.1]oct-8-yl)-N-(3,3,3-trifluoro-2-hydroxypropyl)pyridine-3-carboxamide]: the pIC50 was > 6.70.

In the case of `CC(C)(Oc1ccc(Cl)cc1S(C)(=O)=O)C(=O)N[C@H]1C[C@H]2CC[C@@H](C1)N2c1ccc(C(=O)NCC(F)F)cn1` [Example 422, 6-[3-endo-({2-[4-chloro-2-(methylsulfonyl)phenoxy]-2-methylpropanoyl}amino)-8-azabicyclo[3.2.1]oct-8-yl]-N-(2,2-difluoroethyl)pyridine-3-carboxamide], the pIC50 is > 6.70.

On to `C[C@H](NC(=O)c1ccc(N2C3CCC2CC(NC(=O)C(C)(C)Oc2ccc(F)cc2C(F)(F)F)C3)nc1)C(F)(F)F` (stereo partly drawn) [Example 423, 6-[3-endo-({2-[4-fluoro-2-(trifluoromethyl)phenoxy]-2-methylpropanoyl}amino)-8-azabicyclo[3.2.1]oct-8-yl]-N-[(2S)-1,1,1-trifluoropropan-2-yl]pyridine-3-carboxamide], for which the pIC50 was > 6.70.

With `C[C@H](NC(=O)c1ccc(N2C3CCC2CC(NC(=O)C(C)(C)Oc2ccc(Cl)cc2C(F)F)C3)nc1)C(F)(F)F` (stereo partly drawn) [Example 424, 6-[3-endo-({2-[4-chloro-2-(difluoromethyl)phenoxy]-2-methylpropanoyl}amino)-8-azabicyclo[3.2.1]oct-8-yl]-N-[(2S)-1,1,1-trifluoropropan-2-yl]pyridine-3-carboxamide], the pIC50 was > 6.70.

As to `C[C@H](NC(=O)c1ccc(N2C3CCC2CC(NC(=O)C(C)(C)Oc2cc(F)c(Cl)cc2Cl)C3)nc1)C(F)(F)F` (stereo partly drawn) [Example 425, 6-(3-endo-{[2-(2,4-dichloro-5-fluorophenoxy)-2-methylpropanoyl]amino}-8-azabicyclo[3.2.1]oct-8-yl)-N-[(2S)-1,1,1-trifluoropropan-2-yl]pyridine-3-carboxamide], the pIC50 was > 6.70.

As for `CC(C)(Oc1cc(OC(C)(C)C(=O)N[C@H]2C[C@H]3CC[C@@H](C2)N3c2ccc(C(=O)NCC(F)(F)F)cn2)c(Cl)cc1Cl)C(N)=O` [Example 426, 6-{3-endo-[(2-{5-[(1-amino-2-methyl-1-oxopropan-2-yl)oxy]-2,4-dichlorophenoxy}-2-methylpropanoyl)amino]-8-azabicyclo[3.2.1]oct-8-yl}-N-(2,2,2-trifluoroethyl)pyridine-3-carboxamide], the pIC50 is > 6.70.

Turning to `CC(C)(Oc1ccc(Cl)cc1OC(F)(F)F)C(=O)N[C@H]1C[C@H]2CC[C@@H](C1)N2c1ccc(C(=O)NC2(CO)CC2)cn1` [Example 427, 6-[3-endo-({2-[4-chloro-2-(trifluoromethoxy)phenoxy]-2-methylpropanoyl}amino)-8-azabicyclo[3.2.1]oct-8-yl]-N-[1-(hydroxymethyl)cyclopropyl] pyridine-3-carboxamide], the pIC50 is > 6.70.

As to `CC(C)(Oc1cc(CO)c(Cl)cc1Cl)C(=O)NC1CC2CCC(C1)N2c1ccc(C(=O)NCC(F)F)cn1` (stereo not drawn) [Example 428, 6-[3-endo-({2-[2,4-dichloro-5-(hydroxymethyl)phenoxy]-2-methylpropanoyl}amino)-8-azabicyclo[3.2.1]oct-8-yl]-N-(2,2-difluoroethyl)pyridine-3-carboxamide], the pIC50 is > 6.70.
